Source: patent US20220031680A1, “Donecopride As Neuroprotective Agent In the Treatment of Neurodegenerative Diseases” (priority 2018, published 2022)
Where “and” joins values, the source holds several entries; their conditions need not be identical. Equal entries are not always repeated.

Tested on: α-syn
Test: α-syn aggregation in TH neurons injured with MPP+
Format: cell-based, rat
Details: MPP+ 4 μM 48 h; 1 h pre-incubation
Protocol: The aim of the present study was to investigate the neuroprotective effect of MR36014 and MR33583 (at 4 concentrations) on dopaminergic TH-positive neurons injured with MPP^+. The test compounds were pre-incubated for 1 hour before MPP^+ application (4 μM for 48 h). The neuroprotective effect (survival and neurite network) of test compounds was investigated. In addition, the effect on the cytoplasmic alpha-synuclein accumulation was studied.
Rat dopaminergic neurons were cultured as described by Callizot et al. (2019) PLoS One 14:e0215277 and Visanji et al. (2008) FASEB J. 22:2488-2497. Briefly, pregnant female rat (Wistar) of 15 days of gestation were killed using a deep anesthesia with CO2 chamber and a cervical dislocation. The midbrains obtained from 15-day-old rat embryos (Janvier, France) were dissected under a microscope. […]
Midbrains were dissociated by trypsinisation for 20 min at 37° C. […] Viable cells were counted in a Neubauer cytometer using the trypan blue exclusion test. […]
Briefly, on day 6 of culture, the medium was removed, and fresh medium was added, with or without test compounds and with or without MPP^+ for 48 hours diluted in control medium. 6 wells per condition were assessed. […]
Test compounds were tested in 96-well plate (n=6 culture wells per condition). […] The following conditions were assessed: […]

Structure (SMILES) | concentrations reducing accumulation/aggregation of α-syn
COc1cc(N)c(F)cc1C(=O)CCC1CCN(CC2CCCC2)CC1 [MR33583] | 50 nM and 100 nM
COc1cc(N)c(F)cc1C(=O)CCC1CCN(CC2CCCCCC2)CC1 [MR36014] | all investigated doses
